Measured values reported in patent publication EP4595983A1, “NANOPARTICLES FUNCTIONALISED WITH A STABILISING AGENT AND A TARGETING AGENT” (BXTA Nanotherapy Limited, priority 2024, dated 2025).
Peptide text beside a SMILES is read from it. * marks the point of attachment. Palmitoyl = CCCCCCCCCCCCCCCC(=O)*

How the values were obtained:
various PCa cell lines = assay: Alamar blue viability assay; type: cell-based; conditions: 150 nM, 300 nM and 600 nM, 6 h incubation
Description: (§1) Alamar blue viability assays assessed the impact of inhibiting CXCL8 pro-inflammatory signalling on the viability of various PCa cell lines (Figure 28). Three increasing concentrations of pepducin (150 nM, 300 nM and 600 nM) were assayed following a 6 h incubation. Following exposure to pepducin cells were washed in PBS and 10% Alamar blue solution added for 4 h. Fluorescence was then measured at 540 - 570 nm. […] (N = 4 +/- SEM).

PC3 cells = assay: Alamar blue viability assay; type: cell-based; conditions: 6 h; for cell viability (significance): 150 nM, 300 nM and 600 nM; for reduction in viability: 300 nM
Description: as §1

sh1102 cells = assay: Alamar blue viability assay; type: cell-based; conditions: pepducin exposure; comparative pepducin effect at both 300 nM and 600 nM
Description: as §1
(§2) Following exposure to pepducins, cells were washed in PBS and 10% Alamar blue solution added for 4 h. Fluorescence was then measured at 540 - 570 nm. […] (N=4 +/- SEM).

NT01 = assay: Alamar blue viability assay; type: cell-based; conditions: pepducin exposure; comparative pepducin effect at both 300 nM and 600 nM
Description: as §1, §2

DU145 parental cells = assay: Alamar blue viability assay; type: cell-based; conditions: pepducin exposure; comparative pepducin effect at both 300 nM and 600 nM
Description: as §1, §2

[1] = Solubility (peptide characteristics); type: physicochemical

Row | Molecule | cell viability (various PCa cell lines) | cell viability (significance) (PC3 cells) | cell viability / toxicity (sh1102 cells) | cell viability / toxicity (NT01) | cell viability / toxicity (DU145 parental cells) | Solubility [1] | reduction in viability (PC3 cells)
1 | scrambled control: scrambled control (corresponding to SEQ ID 7) (Palmitoyl-TRFLAKMHQGHKRC-NH2; SMILES CCCCCCCCCCCCCCCC(=O)N[C@H](C(=O)N[C@@H](CCCNC(=N)N)C(=O)N[C@@H](Cc1ccccc1)C(=O)N[C@@H](CC(C)C)C(=O)N[C@@H](C)C(=O)N[C@@H](CCCCN)C(=O)N[C@@H](CCSC)C(=O)N[C@@H](Cc1c[nH]cn1)C(=O)N[C@@H](CCC(N)=O)C(=O)NCC(=O)N[C@@H](Cc1c[nH]cn1)C(=O)N[C@@H](CCCCN)C(=O)N[C@@H](CCCNC(=N)N)C(=O)N[C@@H](CS)C(N)=O)[C@@H](C)O) | did not significantly reduce cell viability | no significant affects | did not show any significant toxicity | did not show any significant toxicity | did not show any significant toxicity |  | 
2 | CCCCCCCCCCCCCCCC(=O)N[C@@H](CCCNC(=N)N)C(=O)N[C@H](C(=O)N[C@@H](CC(C)C)C(=O)N[C@@H](Cc1ccccc1)C(=O)N[C@@H](CCCCN)C(=O)N[C@@H](C)C(=O)N[C@@H](Cc1c[nH]cn1)C(=O)N[C@@H](CCSC)C(=O)NCC(=O)N[C@@H](CCC(N)=O)C(=O)N[C@@H](CCCCN)C(=O)N[C@@H](Cc1c[nH]cn1)C(=O)N[C@@H](CCCNC(=N)N)C(=O)N[C@@H](CS)C(N)=O)[C@@H](C)O [SEQ ID 3, Pal-RTLFKAHMGQKHRC-NH2] (Palmitoyl-RTLFKAHMGQKHRC-NH2) | did not significantly reduce cell viability | no significant reduction in viability | did not show any significant toxicity | did not show any significant toxicity | did not show any significant toxicity | 1:4 (Acetonitirile:H2O) | 8%
3 | CCCCCCCCCCCCCCCC(=O)N[C@@H](CCCNC(=N)N)C(=O)N[C@H](C(=O)N[C@@H](CC(C)C)C(=O)N[C@@H](Cc1ccccc1)C(=O)N[C@@H](CCCCN)C(=O)N[C@@H](C)C(=O)N[C@@H](Cc1c[nH]cn1)C(=O)N[C@@H](CCSC)C(=O)NCC(=O)N[C@@H](CCC(N)=O)C(=O)N[C@@H](CCCCN)C(=O)N[C@@H](Cc1c[nH]cn1)C(=O)N[C@@H](CCCNC(=N)N)C(N)=O)[C@@H](C)O [comparative pepducin] (Palmitoyl-RTLFKAHMGQKHR-NH2) | did not significantly reduce cell viability |  | significantly reduced cell viability | significantly reduced cell viability | significantly reduced cell viability |  | 25%
